Consider 16 substances from US12448624B2, “Modified nucleic acid having improved treatment efficacy, and anticancer pharmaceutical composition containing same” (INTEROLIGO CORPORATION, priority 2018, dated 2025).

{Gem} = gemcitabine nucleotide residue

Data set [1] in a line: In vitro stability: dFdC and dFdU in plasma by LC-MS/MS. The data set is classed as in vitro ADME. The note with it: rat plasma. On the procedure: From the chromatogram obtained by the established LC-MS/MS assay method, peak area ratios of dFdC, dFdU and dFdCTP to a peak area of the internal standard substance were estimated, followed by calculating a concentration in the mouse plasma and a concentration in tissues from a previously created calibration curve.
1 mL of mouse blood was collected and placed in a 1.5 mL Eppendorf tube containing 10 μL of 10 mg/mL (in DW) tetrahydrouridine (THU). After centrifugation under conditions of 14,000 rpm and 4° C. for 2 minutes using a centrifuge, only plasma was taken and transferred to another vial and stored at −80° C. After transferring 50 μL of plasma to a 1.5 mL amber Eppendorf tube, 150 μL of an internal standard substance (meltform 1.29 μg/mL in ACN) was added and vortexed for 10 minutes. Centrifugation was conducted using a centrifuge under conditions of 14,000 rpm and 4° C. for 20 minutes. In the centrifuged tube, 150 μL of sample was transferred to another 1.5 mL amber Eppendorf tube. An organic solvent was dried using a GeneVac EZ-2 automated evaporation system (GeneVac Ltd., Ipswich, UK). (GeneVac HPLC mode, max temperature 35° C., 1 hr). The organic solvent was reconstituted by adding 125 μL DW to a 1.5 mL dried amber Eppendorf tube. After vortexing for 5 minutes, centrifugation was conducted using a centrifuge under conditions of 14,000 rpm and 4° C. for 5 minutes. The supernatant of the centrifuged solution was added in an amount of 100 μL to each vial for LC-MS/MS using a PTFE (hydrophilic) 0.2 μm syringe filter (Toyo Toshi, Japan). Specifically, 5 μL of the supernatant was injected into each LC-MS/MS.
Chromatography was performed using an Agilent 1200 series separation module (Agilent Technologies, Waldbronn, Germany). […] An injection volume was 5 μL, a mobile phase was a gradient eluent system [A: 100% ACN, B: 0.1% formic acid in DW], and a total running time was 20 minutes. A calibration range was set to be 20 to 5,000 ng/mL.
Each sample was treated according to the above 2-1-1 and 2-1-2, and a ratio of dFdC/dFdU in rat plasma was measured in regard to the compound types of (Gem)x-[TGG]m[TTG][TGG]n.

Data set [2] concerns BxPC3, PANC-1, Miapaca-2, and Capan-1. The data set can be described thus: Cell survival (WST-1) of pancreatic cancer cell lines. The note with it: WST-1, 48 hours, 100 nM to 100 μM, all four pancreatic cancer cell lines. The format is cell-based. As to the method:
BxPC3, PANC-1, Miapaca-2, and Capan-1 were cultured as pancreatic cancer cell lines, respectively. When the cells were stable after several subcultures, 1×10^3 cells were seeded in 96 well plates to verify drug effects. On the next day, IO101, IO100, IO100-Con, IO101-Con and Gem at the highest concentration of 100 μM were diluted by 1/10 per each well, and prepared at a concentration of 4 points up to 100 nM. Then, the cells seeding in the 96 well plates were treated using the above prepared variants. After 48 hours, 10 μl of WST-1 solution was added to the wells and incubated in a 37° C. incubator for 1 hour. Subsequently, each sample was measured at 440 nm in a micro plate reader (VERSA Max). After calculation of the measured values, a cell survival rate graph for each treatment concentration was drawn up.

Data set [3] relates to BxPC3 (pancreatic cancer). The data set can be described thus: Cell proliferation inhibition (MTT), BxPC3. The format is cell-based. The note with it: MTT assay, 3 days.
Experimental: (§1) 2.5 to 5.0×10^5 cells/well, which is the cell number defined by cell test to determine the appropriate cell concentration in the pancreatic cancer cell line B x PC3 cell (ATCC, IMDM+10% PBS), were seeded in a 96 well plate and incubated for one day. […] The treated BxPC3 cells were incubated in a 5% CO2 incubator for 3 days, treated with 20 μL of reagent solution for MTT assay (Cell Proliferation KitII, Roche), and then incubated hourly (10 minutes, 30 minutes, 60 minutes), followed by measuring absorbance at 490 nm by a reader through ELISA (See FIGS. 28 and 29).
(§2) Cell proliferation inhibitory efficacy against other cell lines MD-MBA 231 (breast cancer), Uuh-7 (liver cancer), HT29 (colon cancer) and Mv4-11 (AML) was also verified in the same manner as described above.
Data set [4] has as its system MD-MBA 231 (breast cancer). In words: Cell proliferation inhibition (MTT), MD-MB231. The data set is classed as cell-based. The note with it: MTT assay, 3 days.
Experimental: as §1, §2
The next data set in a line: in vivo. The note with it: rat, iv. As to the method:
Sprague-Dawley male rats were subjected to induced anesthesia with isoflurane, which is an inhalation anesthetic, then a polyethylene (PE) tube (Clay Adams, Becton Dickinson, NJ, USA) was inserted into a carotid artery (for blood collection) and sutured with a suture, followed by fixing an end of the suture behind the neck. During surgery, anesthesia was maintained using ether and about 0.5 mL of physiological saline containing heparin (20 units/mL) was injected to prevent blood from clotting in a cannula. After the surgery is finished, the rats were placed in metabolic cages and allowed to recover completely from the anesthetic condition (4 to 5 hours), respectively. […] 1 and 2 ml/kg of drugs were administered intravenously. […] 5. 15. 30, 45, 60, 120, 360 and 720 minutes after the administration, 0.3 mL of blood was each collected through a […]. […] Then, the blood in the Eppendorf tube was immediately centrifuged, followed by storing the plasma.
All analytical procedures were implemented under conditions of shielding the tube. That is, all procedures were performed under quantification condition: SRM (selected reaction monitoring) mode (see Table 5 above), fixed phase condition: Hypersil gold C18, 1.9 μm, 100×2.1 mm^2 (Thermo Scientific, Matriks, Oslo, Norway), and mobile phase condition: distilled water (A) containing 0.1% formic acid and acetonitrile (B) (see Table 6 above).
Metformin as an internal standard substance (IS) was dissolved in acetonitrile to prepare another working solution of 645 ng/mL.
150 μL of the internal standard, that is, metformin was added to 50 μL of plasma (645 ng/mL in acetonitrile) and vortexed for 10 minutes, followed by performing centrifugation at 15,000 rpm and […] for 20 minutes. Thereafter, 150 μL of the supernatant was taken and transferred to another Eppendorf tube, and then the organic solvent was dried under a nitrogen stream. Then, 125 μL of tertiary distilled water was added to the dried Eppendorf tube, allowed to be redissolved. Then, the solution was vortexed for 5 minutes, centrifuged at 15,000 rpm and […] for 5 minutes. Thereafter, 100 μL of the supernatant was transferred to the vial for LC-MS/MS, 5 μL of the supernatant was injected and analyzed by LC-MS/MS.
Values of an area under the plasma concentration-time curve (AUCt) were calculated using a log-linear trapezoidal equation from the plasma concentration-time curves after the administration of drug to the final quantification time (specifically, the linear-trapezoidal equation is used in a section where the plasma concentration is increased, while in another section where plasma concentration is decreased, the trapezoidal equation is used by log transforming the concentration value). After oral administration, the highest plasma concentration (Cmax) and the time to reach the highest plasma concentration (Tmax) were determined from the plasma concentration-time curve. Values of the area (AUCinf) under the plasma concentration till infinite time-time curve were determined using the following equation. A terminal elimination rate constant (γZ) and half-life (t1/2) were determined from a slope of elimination of the plasma concentration. AUinf=AUCt+Ct/γZ(Ct: final quantification concentration, γZ: terminal elimination rate constant)

For the substance (Gem)2-[TGG]1[TTG][TGG]1 [compound 1], in data set [1], the dFdC/dFdU ratio is given as 1.76. On the same count and under the same terms, under (Gem)2-[TGG]1[TTG][TGG]2 [compound 2] stands 2.01; under (Gem)2-[TGG]2[TTG][TGG]1 [compound 3], 2.20. The same measure, in the same setting: under (Gem)2-[TGG]2[TTG][TGG]2 [compound 4] stands 2.61; under (Gem)2-[TGG]2[TTG][TGG]3 [compound 5], 2.79; under (Gem)2-[TGG]3[TTG][TGG]2 [compound 6], 2.84. Still for that read-out and setting: under (Gem)2-[TGG]3[TTG][TGG]3 [compound 7] stands 3.29; under (Gem)2-[TGG]3[TTG][TGG]4 [compound 8], 3.80. Regarding (Gem)2-[TGG]4[TTG][TGG]3 [compound 9], in data set [1], the dFdC/dFdU ratio is 6.04. In the case of “(Gem)2-[TGG]4[TTG][TGG]4 (DNA TGGTGGTGGTGGTTGTGGTGGTGGTGG; two 5' gemcitabine residues, chemistry not fully specified) [compound 10, gemcitabine-containing oligonucleotide variant]”, in data set [1], the dFdC/dFdU ratio was determined as 12.00. Besides, in data set [2], the “pancreatic cancer cell growth inhibition (cell survival rate)” value was “effectively inhibits pancreatic cancer cell growth in proportion to a drug concentration”. Further, the IC50 in data set [3] amounted to 0.0089 µM; in data set [4] it was 0.018 µM. For “(Gem)2-[TGG]4[TTG][TGG]5 (DNA TGGTGGTGGTGGTTGTGGTGGTGGTGGTGG; DNA, 5' {Gem}-{Gem}, backbone not given here) [compound 11, gemcitabine-containing oligonucleotide variant]”, the dFdC/dFdU ratio in data set [1] is on record as 14.10. In addition, the “pancreatic cancer cell growth inhibition (cell survival rate)” value in data set [2] is given as “pancreatic cancer cell growth was effectively inhibited”. In addition, the “dFdU Tmax” value in the data set “in vivo” is 6 h. Moreover, the IC50 in data set [3] came out at 0.0085 µM; in data set [4], 0.015 µM. As to (Gem)2-[TGG]5[TTG][TGG]4 [compound 12], the dFdC/dFdU ratio in data set [1] is listed as 13.63.

On to (Gem)2-[TGG]5[TTG][TGG]5 [compound 13], for which, in data set [1], the dFdC/dFdU ratio was found to be 11.85. Still for that read-out and setting: the result for (Gem)2-[TGG]5[TTG][TGG]6 [compound 14] reads 11.59. Turning to (Gem)2-[TGG]6[TTG][TGG]5 [compound 15], the dFdC/dFdU ratio in data set [1] turned out to be 13.67. As for (Gem)2-[TGG]6[TTG][TGG]6 [compound 16], the dFdC/dFdU ratio in data set [1] came to 13.59.
